Assay results: patent US11040083B2, “Polypeptides comprising vinculin binding sites for the treatment of proliferation and/or adhesion related diseases” (PARIS SCIENCES ET LETTRES—QUARTIER LATIN, priority 2015, dated 2021)
No end group written: not given here.

Legend:
talin H1-H4 [1] = molecular target: T1, talin H1-H4 (Homo sapiens, UniProt Q9Y490); experiment: Native-PAGE gel shift; type: binding
Description: Talin H1-H4 and IpaA peptides/proteins were incubated in binding buffer for 1 hour at 4° C. After incubation, the protein/peptides were mixed in a 2× Native loading buffer (62.5 mM Tris pH 6.8, Glycerol 25%) and separated by Tris-Glycine Native-PAGE electrophoresis. Gels were stained using standard colloidal Coomassie stain.
Talin H1-H4 and IpaA peptides/proteins at different molar ratios were incubated in binding buffer (25 mM Tris pH 7.4, 100 mM NaCl and 1 mM β-Mercaptoethanol) for 1 hour at 4° C. After incubation, the protein/peptides were mixed in a 2× Native loading buffer (62.5 mM Tris pH 6.8, Glycerol 25%) and separated by Tris-Glycine Native-PAGE electrophoresis. The Native PAGE electrophoresis gels were stained using standard colloidal Coomassie stain.

talin H1-H4 [2] = molecular target: T1, talin H1-H4; experiment: Isothermal titration calorimetry; type: binding; settings: for N (stoichiometry): ITC non-linear fit; for N (stoichiometry) / ΔG free enthalpy / ΔH enthalpy / −TΔS entropic contribution: 25° C.
Description: Vinculin, IpaA proteins and peptides were extensively dialyzed in binding buffer (25 mM Tris pH 7.4, 100 mM NaCl and 1 mM β-Mercaptoethanol). The final concentration of all proteins/peptides was measured using a BCA test (Thermo Scientific). Talin-IpaA binding was measured by microcalorimetry using an ITC200 calorimeter (MicroCal) at 25° C. 200 μL of 20-100 μM of talin H1-H4 protein was added to the cell and binding in the presence of different concentrations of IpaA VBS1, VBS2 or VBS3 peptides was measured. In other experiments, 200 μL of a 16 μM equimolar mix of A483:HVD1 was incubated for one hour at room temperature prior to addition to the cell. Binding to talin H1-H4 (100 μM) was measured. Typically, 20-40 injections of 2 μL of ligand were made with intervals of 320 seconds between each addition, with a reference power of 12 μcal/sec. Data were analyzed using the MicroCal software provided by manufacturer.

[3] = Size exclusion chromatography, hydrodynamic radius; type: physicochemical
Description: The purified proteins HVD1, A483, A524 and Talin H1-H4 were used at an equimolar concentration of 20 μM and incubated at 4° C. for one hour in binding buffer. The protein mixtures (200 μL) were injected in a FPLC chromatography system (FPLC Pharmacia) at 16° C. in a Superdex 75 HR 10/30 column (GE Healthcare) previously equilibrated with 10 volumes of binding buffer. The SEC system was calibrated with a Low Molecular Weight Gel Filtration Kit (ref. 17-0442-01, GE Healthcare) and the hydrodynamic radius (Angstroms) of the reference proteins (BSA, OVA, ChyA and RibA) correlated with the elution volume (Ve) using an Euler exponential equation: Hydrodynamic radius (Ang)=210.46 e^−0.189 Ve (mL), with a correlation squared coefficient of R^2=0.9973. Fractions corresponding to elution volume 8-10 mLs were recovered, and analyzed by SDS-PAGE using 15% polyacrylamide gels.

T1 sequence (Q9Y490 482-636): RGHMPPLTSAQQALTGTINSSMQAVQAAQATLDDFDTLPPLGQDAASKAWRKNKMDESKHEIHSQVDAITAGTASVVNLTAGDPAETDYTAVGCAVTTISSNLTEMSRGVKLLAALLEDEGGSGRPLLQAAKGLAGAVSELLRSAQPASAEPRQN

Row | Molecule | formation of a complex with talin H1-H4 (talin H1-H4 [1]) | N (stoichiometry) (talin H1-H4 [2]) | ΔG free enthalpy (talin H1-H4 [2]; ITC) [cal/mol] | ΔH enthalpy (talin H1-H4 [2]; ITC) [cal/mol] | −TΔS entropic contribution (talin H1-H4 [2]; ITC) | other results
1 | CC[C@H](C)[C@H](N)C(=O)N[C@@H](Cc1ccc(O)cc1)C(=O)N[C@@H](CCCCN)C(=O)N[C@@H](C)C(=O)N[C@@H](C)C(=O)N[C@@H](CCCCN)C(=O)N[C@@H](CC(=O)O)C(=O)N[C@H](C(=O)N[C@H](C(=O)N[C@H](C(=O)N[C@@H](CO)C(=O)N[C@@H](CC(C)C)C(=O)N[C@@H](CO)C(=O)N[C@@H](CCCCN)C(=O)N[C@H](C(=O)N[C@@H](CC(C)C)C(=O)N[C@@H](CCCCN)C(=O)N[C@@H](CC(N)=O)C(=O)N[C@H](C(=O)N[C@@H](CC(N)=O)C(=O)N[C@@H](CCCCN)C(=O)N[C@@H](CC(=O)O)C(=O)O)[C@@H](C)CC)C(C)C)[C@@H](C)O)[C@@H](C)O)C(C)C [IpaA VBS1] | did not induce the formation | 1.22 | -6575 | -4104 | -2471 cal/mol | 
2 | CC[C@H](C)[C@H](NC(=O)[C@H](CC(C)C)NC(=O)[C@H](CO)NC(=O)[C@@H](NC(=O)[C@H](CC(C)C)NC(=O)[C@H](CC(N)=O)NC(=O)[C@H](CO)NC(=O)[C@H](CC(C)C)NC(=O)[C@H](CO)NC(=O)[C@H](CC(N)=O)NC(=O)[C@@H](NC(=O)[C@@H](NC(=O)[C@H](CCCCN)NC(=O)[C@H](CCCCN)NC(=O)[C@H](CO)NC(=O)[C@H](C)NC(=O)[C@H](CCC(=O)O)NC(=O)[C@H](Cc1ccccc1)NC(=O)[C@@H](NC(=O)[C@@H](NC(=O)[C@H](CCC(=O)O)NC(=O)[C@H](CCCNC(=N)N)NC(=O)[C@@H](N)[C@@H](C)O)[C@@H](C)O)[C@@H](C)CC)C(C)C)[C@@H](C)O)[C@@H](C)CC)C(=O)NCC(=O)N[C@H](C(=O)O)[C@@H](C)O [IpaA VBS3] |  | 0.893 | -9219 | -6393 | -2826 cal/mol | concentration at which the complex with talin H1-H4 / migration shift could be detected (talin H1-H4 [1]): 25 µM; ΔG free enthalpy (talin H1-H4 [2]; ITC, listed as IpaA VBS3/TBS): -9070 ± 103 cal/mol
3 | IYEKAKEVSSALSKVLSKI (IpaA VBS2; listed as Shigella flexneri) [purified synthetic IpaA VBS peptide] | did not induce the formation |  |  |  |  | interaction with talin H1-H4 by ITC (talin H1-H4 [2]; ITC): did not show any interaction
4 | YTKKELIECARRVSEKVSHVLAALQA [talin H46, reference compound] | formed a complex |  |  | -16970 | +7200 cal/mol | Kd (talin H1-H4 [2]): 60 nM
5 | HVD1: vinculin derivative containing only amino acid residues 1 to 257 of HV (D1 domain) (protein, listed as Homo sapiens, Vinculin domain D1 (HVD1)) MPVFHTRTIESILEPVAQQISHLVIMHEEGEVDGKAIPDLTAPVAAVQAAVSNLVRVGKETVQTTEDQILKRDMPPAFIKVENACTKLVQAAQMLQSDPYSVPARDYLIDGSRGILSGTSDLLLTFDEAEVRKIIRVCKGILEYLTVAEVVETMEDLVTYTKNLGPGMTKMAKMIDERQQELTHQEHRVMLVNSMNTVKELLPVLISAMKIFVTTKNSKNQGIEEALKNRNFTVEKMSAEINEIIRVLQLTSWDEDA |  |  |  |  |  | Radiusg (hydrodynamic radius of a globular protein with the same MW) [3]: 24.36 Ang; Radiusm/Radiusg (RH/RG ratio) [3]: 1.16; Radiusm (estimated hydrodynamic radius) ([3]; SEC Superdex 75, 20 μM equimolar): 28.25 Ang
